# Test results: patent US20110224147A1, “METHODS AND COMPOSITIONS” (Relevare Aust. Pyt. Ltd., priority 2008, published 2011)
# Marks after values point to notes of the source that are not given here.
# Key:
# normal rats = assay: Open field activity monitor (sedation), normal rats
# Procedure: (§1) All experiments were performed on male Wistar rats, weight 170-220 g for experiments investigating sedation and antinociception using the carrageenan inflammation paradigm and weight 120-200 g for experiments evaluating sedation and antinociception using the diabetic neuropathy model. The experiments were performed in an observer-blinded fashion with parallel positive placebo (gabapentin) and negative placebo (vehicle) treatment controls. All drug solutions and vehicle were given intraperitoneally (ip) in a volume of 1.0 ml.
# (§2) Measurement of the movements of a freely moving rat in an open field activity monitor was used. […] The maximum non-sedating doses of each compound alone and in combination were first determined in normal rats and then those doses were tested for sedation in diabetic rats. This was done to be sure that there was no sedation caused by the drugs, particularly in diabetics that are known to be more susceptible to CNS depressants.
# (§3) The open field activity monitor (MedAssociates Inc. St. Albans, Vt. 05478, USA) is an enclosure with a quiet and darkened environment. It contains 16 intersecting beams of infrared light. Interruptions of beams by individual rats moving around the enclosure were recorded by computer. These measurements were converted to the total rest time in seconds during a 20 min period in the apparatus. Rest times of drug-treated rats were compared with vehicle-treated controls using ANOVA with Dunnet post hoc test.
# (§4) Animals naïve to drug treatment were acclimatized to the lab environment and individual rats were selected randomly from a group one at a time. They were injected (ip) with vehicle, a test drug dose or a combination of drugs in an operator-blinded fashion. Five minutes after the ip injection each rat was placed in the open field activity monitor for a 20-min period.
# (§5) Groups of rats were tested with the open field activity monitor as above with the following ip treatments: • vehicle controls, n=121 experiments • CNSB002 at doses 10 and 20 mg/kg, n=20 and 10 experiments • morphine at doses 6.4 and 3.2 mg/kg, n=21 and 20 experiments • a combination of CNSB002 at 10 mg/kg with morphine at 3.2 mg/kg, n=21 experiments • a combination of CNSB002 at 5.0 mg/kg with morphine at 3.2 mg/kg, n=19 experiments • gabapentin at doses of 100 and 50 mg/kg, n=26 each experiments • a combination of GABApentin at 50 mg/kg with morphine at 3.2 mg/kg, n=19 experiments
# [1] = tested on: carrageenan-induced hyperalgesia; assay: Carrageenan paw inflammation test (paw withdrawal latency, noxious heat); type: in vivo, rat; conditions: for antinociception, significance vs vehicle controls: p>0.05
# Procedure: as §1
# Two tests for antinociception were used: the carrageenan paw inflammation test; and the streptozotocin-induced diabetic neuropathy model. Inflammation of the right hind paw was induced by an intraplantar injection of carrageenan (100 μl of a 2% w/v carrageenan solution in saline). Time was allowed for paw inflammation to develop (2 hours). Paw withdrawal latencies were measured using noxious heat from an infrared beam focused onto the plantar surface of the right hind paw in unrestrained animals using apparatus from Ugo Basile (via G. Borghi 43, 21025 Comerio VA—Italy). The method used was originally described by Hargreaves et al, Pain 32:77-88, 1988.
# Paw withdrawal latencies were measured at 10 min intervals before the induction of inflammation with carrageenan injection until 3 stable baseline readings were obtained (baseline readings—see FIG. 1). […] A test drug or drug combination was injected intraperitoneally and paw withdrawal values were measured at 10-minute intervals for the following 30 minutes (test drug readings—see FIG. 1).
# The following drug treatments were given ip to separate groups of rats: • vehicle controls, n=63 • CNSB002 at dose range 0.5 mg/kg to 10 mg/kg alone, n=14 each • morphine at dose range 0.2 mg/kg to 3.2 mg/kg alone, n=10 each • combinations of CNSB002 at 5 mg/kg with morphine at 0.2, 0.4, 0.8, 1.6 and 3.2 mg/kg, n=10 each • gabapentin alone at 50 mg/kg, n=20 • combination of gabapentin at 50 mg/kg with morphine 3.2 mg/kg, n=20
# Drug and placebo/vehicle treatments were compared statistically using ANOVA with Tukey-Kramer post hoc test.
# diabetic rats = assay: Open field activity monitor (sedation), diabetic rats
# Procedure: as §1, §2, §3, §4, §5
# Rats were injected ip with streptozotocin (STZ; […] total dose) dissolved in 0.9% w/v sodium chloride solution. The 150 mg dose was given in two 75 mg/kg injections on consecutive days. Diabetes was confirmed one week after injection of STZ by measurement of tail vein blood glucose levels with AccuCheck Active test strips and a reflectance colorimeter (AccuCheck Glucometer, Roche). Only animals with final blood glucose levels ≧15 mM were deemed to be diabetic. The rats were retested for hyperglycaemia once per week to confirm continued high blood glucose readings. Hyperalgesia was assessed by measurement of paw flick latency using the radiant heat plantar test described previously by Hargreaves et al, 1988 supra.
# [2] = tested on: hyperalgesia caused by STZ-induced diabetic neuropathy; assay: Streptozotocin-induced diabetic neuropathy model (paw flick latency, radiant heat plantar test); type: in vivo, rat; conditions: diabetic rats
# [3] = male, Wistar, rat, in vivo, ip, 10 mg/kg, 20 min
# [4] = CNSB002 10 mg/kg ip alone, p<0.01
# [5] = gabapentin 50 mg/kg ip alone, p<0.01
# [6] = morphine 3.2 mg/kg ip alone, p<0.05
compound,measurement,setting,value
"CC(C)(C)c1cc(CN2CCN(CC(O)c3ccc(Cl)cc3)CC2)cc(C(C)(C)C)c1O (stereo not shown) [CNSB002, 1-(2-(4-chlorophenyl)-2-hydroxy)ethyl-4-(3,5-bis(1,1-dimethyl)-4-hydroxyphenyl)methylpiperazine]",total rest time during a 20 min period (mean),normal rats; [3],851.2 s
same,total rest time during a 20 min period (mean),"normal rats; male, Wistar, rat, in vivo, ip, 20 mg/kg, 20 min",1001.2* seconds
same,sedation vs vehicle controls,"normal rats; rat, in vivo, ip, 10 mg/kg",did not cause sedation
same,sedation vs vehicle controls,"normal rats; rat, in vivo, ip, 20 mg/kg",sedating
same,reversal of carrageenan-induced hyperalgesia,[1]; CNSB002 5 mg/kg ip alone,35%
same,reversal of carrageenan-induced hyperalgesia,[1]; CNSB002 10 mg/kg ip alone,35%
same,"antinociception, significance vs vehicle controls",[1]; CNSB002 0.5-10 mg/kg ip alone,No dose of gabapentin or CNSB002 administered alone caused statistically-significant antinociception
same,antinociception compared with CNSB002 at 0.5 mg/kg,[1]; CNSB002 5 or 10 mg/kg ip alone,significantly greater
same,total rest time during a 20 min period (mean),diabetic rats; [3],1005.6 s
same,sedation vs vehicle controls,"diabetic rats; rat, in vivo, ip, 10 mg/kg",not sedating
same,"antinociception compared with CNSB002 at 0.5, 1.0 and 2.5 mg/kg","[2]; CNSB002 10 mg/kg ip alone, not vs 5 mg/kg",significantly greater
same,"antinociception, significance vs vehicle controls",[2]; [4],significant antinociceptive effect
same,reversal of hyperalgesia,[2]; [4],26%
same,"antinociception, significance vs vehicle controls",[2]; CNSB002 doses other than 10 mg/kg (0.5-5 mg/kg) ip alone,No other doses of CNSB002 administered alone caused significant antinociception
NCC1(CC(=O)O)CCCCC1 [gabapentin],total rest time during a 20 min period (mean),"normal rats; normal rats, gabapentin 50 mg/kg ip alone, Table 1C",753.0 s
same,sedation vs vehicle controls,"normal rats; normal rats, gabapentin 50 mg/kg ip alone, p>0.05",did not cause sedation
same,total rest time during a 20 min period (mean),"normal rats; normal rats, gabapentin 100 mg/kg ip alone, Table 1C",881.6* seconds
same,sedation vs vehicle controls,"normal rats; normal rats, gabapentin 100 mg/kg ip alone, p<0.01",caused significant sedation
same,"antinociception, significance vs vehicle controls",[1]; gabapentin 50 mg/kg ip alone,No dose of gabapentin or CNSB002 administered alone caused statistically-significant antinociception
same,total rest time during a 20 min period (mean),"diabetic rats; diabetic rats, gabapentin 50 mg/kg ip alone, Table 2A",985.8 s
same,sedation vs vehicle controls,"diabetic rats; diabetic rats, gabapentin 50 mg/kg ip alone, p>0.05",not sedating
same,total rest time during a 20 min period (mean),"diabetic rats; diabetic rats, gabapentin 100 mg/kg ip alone, Table 2A",941.2 s
same,sedation vs vehicle controls,"diabetic rats; diabetic rats, gabapentin 100 mg/kg ip alone, p>0.05",not sedating
same,"antinociception, significance vs vehicle controls",[2]; [5],equally significant antinociception
same,reversal of hyperalgesia,[2]; [5],26%
CN1CC[C@]23c4c5ccc(O)c4O[C@H]2[C@@H](O)C=C[C@H]3[C@H]1C5 [morphine],sedation vs vehicle controls,"normal rats; normal rats, doses of morphine up to 6.4 mg/kg ip",sedation was not caused
same,total rest time during a 20 min period (mean),"normal rats; normal rats, morphine 3.2 mg/kg ip alone, Table 1B",961.0 s
same,sedation vs vehicle controls,"normal rats; normal rats, morphine 3.2 mg/kg ip alone, p>0.05 unpaired t test",did not cause sedation
same,reversal of carrageenan-induced hyperalgesia,[1]; morphine 3.2 mg/kg ip alone,24%
same,"antinociception, significance vs vehicle controls",[1]; morphine 0.2-3.2 mg/kg ip alone,caused no significant antinociception
same,total rest time during a 20 min period (mean),"diabetic rats; diabetic rats, morphine 3.2 mg/kg ip alone, Table 2A",943.6 s
same,sedation vs vehicle controls,"diabetic rats; diabetic rats, morphine 3.2 mg/kg ip alone, p>0.05",not sedating
same,total rest time during a 20 min period (mean),"diabetic rats; diabetic rats, morphine 6.4 mg/kg ip alone, Table 2B",972.6* seconds
same,sedation vs vehicle controls,"diabetic rats; diabetic rats, morphine 6.4 mg/kg ip alone, p<0.01",caused sedation
same,"antinociception, significance vs vehicle controls",[2]; [6],significant antinociceptive effect
same,reversal of hyperalgesia,[2]; [6],30%
same,"antinociception, significance vs vehicle controls","[2]; morphine alone ip, doses below the highest dose 3.2 mg/kg, p>0.05",No dose of morphine alone caused significant antinociception
